Measurements taken from patent US8106155B2, “Test kit for determining process for determining antibiotics containing a beta-lactam ring in a biological fluid” (Neogen Corporation, priority 1998, dated 2012).

Assays:
[1] = biological target: T1, BlaR-CTD-β-lactamase fusion protein (UniProt P04190+P12287); assay: Example 2: BlaR-CTD-β-lactamase fusion protein with cephalosporin C magnetic beads, milk; type: binding, Bacillus licheniformis; details: nitrocefine absorbance at 482 nm, 47° C., detection at concentrations below the US standards listed
T1 construct: made in house; host or cells: E. coli
T1 sequence (P12287+P04190 with tags, fused parts or gaps): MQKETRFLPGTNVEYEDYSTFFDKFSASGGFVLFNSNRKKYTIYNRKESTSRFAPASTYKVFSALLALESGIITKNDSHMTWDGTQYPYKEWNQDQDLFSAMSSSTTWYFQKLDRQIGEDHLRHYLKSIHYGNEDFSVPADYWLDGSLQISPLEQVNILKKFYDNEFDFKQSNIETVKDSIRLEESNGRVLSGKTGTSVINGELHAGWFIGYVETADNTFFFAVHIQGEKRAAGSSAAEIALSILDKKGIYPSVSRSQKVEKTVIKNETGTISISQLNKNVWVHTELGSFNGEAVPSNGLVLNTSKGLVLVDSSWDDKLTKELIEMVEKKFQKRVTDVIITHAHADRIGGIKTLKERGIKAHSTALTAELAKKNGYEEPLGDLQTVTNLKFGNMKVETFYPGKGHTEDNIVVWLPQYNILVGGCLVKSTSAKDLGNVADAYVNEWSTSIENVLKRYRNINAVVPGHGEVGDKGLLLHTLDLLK
Description: This example illustrates the detection in milk of the 6 antibiotics containing a β-lactam ring which are controlled by the US authorities. The test described in this example uses the BlaR-CTD receptor in the form of a fusion protein with β-lacatamase and uses a support in the form of magnetic beads.
The BlaR-CTD-β-lactamase fusion protein is obtained by genetic coupling between the BlaR-CTD receptor (B. Joris et al., FEMS Microbiology Letters, 107-114, 1990) and Zn β-lactamase from Bacillus cereus (M. Hussain et al., 1985, J. Bact., 164:1, 223-229, 1985).
BioMag 4100 particles (available from DRG Instrument GmbH, Marburg, Germany, under the reference AM 4100 B) are used, the NH2 ends of which have been activated with glutaraldehyde in the following way: • one volume of initial solution of BioMag 4100 particles is rinsed 4 times with 5 volumes of 0.01M pH 6.0 pyridine buffer. The particles are taken up in 2.5 volumes of glutaraldehyde at 5% in pyridine buffer and are agitated by rotation for 3 hours at room temperature. They are then rinsed 10 times with 2 volumes of 0.01 M pH 7.0 Kpi buffer. The particles are then resuspended in 1 volume of 0.1 M cephalosporin C in Kpi buffer and are agitated by rotation overnight at +4° C. The final rinsing is carried out until the cephalasporin C has been completely removed from the 0.1 M pH 7.0 Kpi buffer. 2.3. Determination of the 6 Antibiotics Penicillin G, Ampicillin, Amoxicillin, Cloxacillin, Cephapirin and Certiofur in Milk. […]
50 μl of solution 1 are placed in the presence of […] of doped milk samples and incubated at 47° C. for 2 minutes. […] The absorbance of the residual solution at 482 nm is then measured relative to the nitrocefine solution.

BlaR-CTD receptor [2] = biological target: T2, BlaR-CTD receptor (Bacillus licheniformis, UniProt P12287); assay: 9-minute test: BlaR-CTD coupled to gold beads, membrane test device, milk; type: binding; details: 47° C.; for concentration detected in a sample of milk: test carried out in 9 minutes, positive when 1st band less intense than 2nd band; for Intensity 1st band: 9-minute test, scale 0 to 10, reference band 6
T2 construct: uses the BlaR-CTD receptor coupled to gold beads
Procedure: (§1) This example illustrates the detection in milk of antibiotics containing a β-lactam ring, which are controlled by the health authorities. The test described in this example uses the BlaR-CTD receptor coupled to gold beads which serve as labelling agents, and uses a support in the form of a test device comprising a solid support to which membranes are attached.
6 samples of fresh milk containing 0; 4; 6; 8; 10 and 12 ppb of cephapirin, respectively, are prepared. Each of these solutions is then analyzed in the following way.
A 200 μl aliquot sample of milk and 45.27 μl of solution prepared in Example 1.1.3 are taken and placed in a glass flask. This mixture is incubated for 7 minutes at 47° C. A test device is taken and placed vertically in the glass flask such that the first end of the test device is in contact with the mixture and such that the second end rests on the wall of the glass flask. The mixture is left to migrate on the test device, while incubating the assembly for 2 minutes at 47° C.
An intensity value ranging from 0 to 10 is attributed to the bands detected, the value 10 being given to the most intense band and the value 0 being given to the least intense band. According to this scale, a value of 6 is assigned to the reference band. The intensity of the signal observed in the first band is inversely proportional to the amount of cephapirin present in the sample.
(§2) In this example, when the first band has an intesity less than that of the second band, the test is considered as being positive.

BlaR-CTD receptor [3] = biological target: T2, BlaR-CTD receptor; assay: 5-minute test: BlaR-CTD coupled to gold beads, membrane test device, milk; type: binding; details: test carried out in 5 minutes, 47° C.; positive when 1st band less intense than 2nd band
Procedure: as §1
6 samples of fresh milk containing 0; 2; 4; 6; 8 and 10 ppb of cloxacillin, respectively, are prepared. Each of these solutions is then analyzed in the following way.
A 200 μl aliquot sample of milk and 45.27 μl of solution prepared in Example 1.1.3 are taken and placed in a glass flask. This mixture is incubated for 3 minutes at 47° C. A test device is taken and placed vertically in the glass flask such that the first end of the test device is in contact with the mixture and such that the second end rests on the wall of the glass flask. The mixture is left to migrate on the test device, while incubating the assembly for 2 minutes at 47° C.
An intensity value ranging from 0 to 10 is attributed to the bands detected, the value 10 being given to the most intense band and the value 0 being given to the least intense band. According to this scale, a value of 6 is assigned to the reference band. The intensity of the signal observed in the first band is inversely proportional to the amount of cloxacillin present in the sample.
as §2

Structure (SMILES) | concentration detected in milk [1] [ppb] | concentration detected in a sample of milk (BlaR-CTD receptor [2]) [ppb] | concentration detected in a sample of milk (BlaR-CTD receptor [3]) [ppb] | Intensity 1st band (BlaR-CTD receptor [2]; 4 ppb cephapirin in milk) | Intensity 1st band (BlaR-CTD receptor [2]; 6 ppb cephapirin in milk) | Intensity 1st band (BlaR-CTD receptor [2]; 8 ppb cephapirin in milk) | Intensity 1st band (BlaR-CTD receptor [2]; 10 ppb cephapirin in milk) | Intensity 1st band (BlaR-CTD receptor [2]; 12 ppb cephapirin in milk)
CO/N=C(\C(=O)N[C@@H]1C(=O)N2C(C(=O)O)=C(CSC(=O)c3ccco3)CS[C@H]12)c1csc(N)n1 [ceftiofur] | < 50 | 80 | 100 | – | – | – | – | –
CC(=O)OCC1=C(C(=O)O)N2C(=O)[C@@H](NC(=O)CSc3ccncc3)[C@H]2SC1 [cephapirin] | < 20 | 6 | 16 | 6 | 5 | 4 | 3 | 3
CC1(C)S[C@@H]2[C@H](NC(=O)Cc3ccccc3)C(=O)N2[C@H]1C(=O)O [penicillin G] | < 5 | 3 | 3 | – | – | – | – | –
